# In patent US20120244567A1, “HUMAN EMBRYONIC STEM CELLS FOR HIGH THROUGHOUT DRUG SCREENING” (BUCK INSTITUTE FOR RESEARCH ON AGING, priority 2009, published 2012):
# Counter-ions that a name gives are not always drawn.
# System: NSCs
# Method: RNAs isolated from NSCs and neurons with and without drug treatments were hybridized to Illumina HumanRef-8 BeadChip (Illumina, Inc., San Diego, Calif., performed by Microarray core facility at the Burnham Institute for Medical Research). The Illumina array data were normalized by the quantile method, and then transformed log 2 ratio values for a zero mean for expression values of each gene across all samples. The statistical and bioinformatics analyses were conducted by using R and the bioconductor package (www.bioconductor.org). The gene set enrichment analysis was conducted using the GSEA software (www.broad.mit.edu/gsea).
# The comparative results are then measured by a non-parametric, running sum statistic termed the enrichment score. The enrichment score significance is assessed by 1,000 permutation tests to compute the enrichment p-value.
compound,measurement,setting,value
CCCCc1oc2ccccc2c1C(=O)c1cc(I)c(OCCN(CC)CC)c(I)c1 [Amiodarone Hydrochloride],Nes: Acetyltransferase Activity,Enriched In Untreated Nscs,−1.239
same,Nes: Amine Transmembrane Transporter Activity,Enriched In Untreated Nscs,−0.9002
same,Nes: Amino Acid Transmembrane Transporter Activity,Enriched In Untreated Nscs,−0.9455
same,Nes: Atp Dependent Helicase Activity,Enriched In Untreated Nscs,−1.499
same,Nes: Atp Dependent Rna Helicase Activity,Enriched In Untreated Nscs,−1.626
same,Nes: Atpase Activity,Enriched In Untreated Nscs,−0.8253
same,Nes: Atpase Activity Coupled,Enriched In Untreated Nscs,−1.068
same,Nes: Atpase Activity Coupled To Movement Of Substances,Enriched In Untreated Nscs,−0.3743
same,Nes: Atpase Activity Coupled To Transmembrane Movement Of Ions,Enriched In Untreated Nscs,−0.543
same,Nes: Calcium Ion Binding,Enriched In Untreated Nscs,−1.593
same,Nes: Carbohydrate Binding,Enriched In Untreated Nscs,−0.9729
same,Nes: Carboxylic Acid Transmembrane Transporter Activity,Enriched In Untreated Nscs,−0.8373
same,Nes: Cation Binding,Enriched In Untreated Nscs,−1.033
same,Nes: Chromatin Binding,Enriched In Untreated Nscs,−1.015
same,Nes: Cofactor Binding,Enriched In Untreated Nscs,−0.9326
same,Nes: Cytokine Activity,Enriched In Untreated Nscs,−1.381
same,Nes: Cytokine Binding,Enriched In Untreated Nscs,−1.174
same,Nes: Damaged Dna Binding,Enriched In Untreated Nscs,−1.1681
same,Nes: Dna Dependent Atpase Activity,Enriched In Untreated Nscs,−1.2
same,Nes: Dna Helicase Activity,Enriched In Untreated Nscs,−0.5542
same,Nes: Double Stranded Dna Binding,Enriched In Untreated Nscs,−0.4584
same,Nes: Electron Carrier Activity,Enriched In Untreated Nscs,−0.6307
same,Nes: Enzyme Activator Activity,Enriched In Untreated Nscs,−1.024
same,Nes: Exopeptidase Activity,Enriched In Untreated Nscs,−0.915
same,Nes: Glycosaminoglycan Binding,Enriched In Untreated Nscs,−0.9127
same,Nes: Growth Factor Activity,Enriched In Untreated Nscs,−1.254
same,Nes: Gtp Binding,Enriched In Untreated Nscs,−0.9695
same,Nes: Gtpase Activity,Enriched In Untreated Nscs,−0.811
same,Nes: Guanyl Nucleotide Binding,Enriched In Untreated Nscs,−1.265
same,Nes: Helicase Activity,Enriched In Untreated Nscs,−1.374
same,Nes: Heparin Binding,Enriched In Untreated Nscs,−1.015
same,Nes: Hormone Activity,Enriched In Untreated Nscs,−1.196
same,Nes: Hydrogen Ion Transmembrane Transporter Activity,Enriched In Untreated Nscs,−1.077
same,Nes: Hydrolase Activity Acting On Acid Anhydrides,Enriched In Untreated Nscs,−0.9907
same,Nes: Hydrolase Activity Acting On Acid Anhydrides Catalyzing Transmembrane Movement Of Substances,Enriched In Untreated Nscs,−0.4097
same,Nes: Hydrolase Activity Acting On Carbon Nitrogen But Not Peptide Bonds,Enriched In Untreated Nscs,−0.7823
same,Nes: Ion Binding,Enriched In Untreated Nscs,−1.044
same,Nes: Kinase Activity,Enriched In Untreated Nscs,−0.9611
same,Nes: Kinase Inhibitor Activity,Enriched In Untreated Nscs,−0.8002
same,Nes: Kinase Regulator Activity,Enriched In Untreated Nscs,−0.9286
same,Nes: Lipase Activity,Enriched In Untreated Nscs,−1.055
same,Nes: Lipid Binding,Enriched In Untreated Nscs,−1.147
same,Nes: Magnesium Ion Binding,Enriched In Untreated Nscs,−1.1144
same,Nes: Metallopeptidase Activity,Enriched In Untreated Nscs,−1.06
same,Nes: Microtubule Binding,Enriched In Untreated Nscs,−0.7143
same,Nes: N Acetyltransferase Activity,Enriched In Untreated Nscs,−1.282
same,Nes: N Acyltransferase Activity,Enriched In Untreated Nscs,−1.201
same,Nes: Nucleobase Nucleoside Nucleotide Kinase Activity,Enriched In Untreated Nscs,−1.417
same,Nes: Nucleoside Triphosphatase Activity,Enriched In Untreated Nscs,−0.8995
same,Nes: Nucleotidyltransferase Activity,Enriched In Untreated Nscs,−0.6782
same,Nes: Organic Acid Transmembrane Transporter Activity,Enriched In Untreated Nscs,−0.8193
same,Nes: Oxidoreductase Activity Acting On Nadh Or Nadph,Enriched In Untreated Nscs,−1.092
same,Nes: Oxidoreductase Activity Acting On The Ch Ch Group Of Donors,Enriched In Untreated Nscs,−1.2992
same,Nes: Pattern Binding,Enriched In Untreated Nscs,−0.8999
same,Nes: Peptide Binding,Enriched In Untreated Nscs,−0.9386
same,Nes: Phospholipid Binding,Enriched In Untreated Nscs,−1.255
same,Nes: Phosphotransferase Activity Alcohol Group As Acceptor,Enriched In Untreated Nscs,−0.929
same,Nes: Phosphotransferase Activity Phosphate Group As Acceptor,Enriched In Untreated Nscs,−1.665
same,Nes: Polysaccharide Binding,Enriched In Untreated Nscs,−0.9675
same,Nes: Primary Active Transmembrane Transporter Activity,Enriched In Untreated Nscs,−0.3858
same,Nes: Protein Dimerization Activity,Enriched In Untreated Nscs,−1.017
same,Nes: Protein Heterodimerization Activity,Enriched In Untreated Nscs,−1.3399
same,Nes: Protein Homodimerization Activity,Enriched In Untreated Nscs,−0.801
same,Nes: Protein Kinase Inhibitor Activity,Enriched In Untreated Nscs,−0.7805
same,Nes: Protein Kinase Regulator Activity,Enriched In Untreated Nscs,−0.8809
same,Nes: Protein N Terminus Binding,Enriched In Untreated Nscs,−0.5542
same,Nes: Pyrophosphatase Activity,Enriched In Untreated Nscs,−1.053
same,Nes: Ras Gtpase Binding,Enriched In Untreated Nscs,−0.9567
same,Nes: Receptor Activity,Enriched In Untreated Nscs,−1.044
same,Nes: Receptor Binding,Enriched In Untreated Nscs,−1.0604
same,Nes: Receptor Signaling Protein Serine Threonine Kinase Activity,Enriched In Untreated Nscs,−0.7954
same,Nes: Rhodopsin Like Receptor Activity,Enriched In Untreated Nscs,−1.049
same,Nes: Rna Binding,Enriched In Untreated Nscs,−0.6659
same,Nes: Rna Dependent Atpase Activity,Enriched In Untreated Nscs,−1.8058
same,Nes: Rna Helicase Activity,Enriched In Untreated Nscs,−1.68
same,Nes: Signal Sequence Binding,Enriched In Untreated Nscs,−0.8286
same,Nes: Structural Constituent Of Ribosome,Enriched In Untreated Nscs,−0.6343
same,Nes: Transferase Activity Transferring Acyl Groups,Enriched In Untreated Nscs,−0.9146
same,Nes: Transferase Activity Transferring Hexosyl Groups,Enriched In Untreated Nscs,−0.8814
same,Nes: Transferase Activity Transferring Phosphorus Containing Groups,Enriched In Untreated Nscs,−1.002
same,Nes: Transmembrane Receptor Activity,Enriched In Untreated Nscs,−1.132
same,Nes: Tubulin Binding,Enriched In Untreated Nscs,−1.169
same,Nes: Udp Glycosyltransferase Activity,Enriched In Untreated Nscs,−0.9459
same,Nes: Acid Amino Acid Ligase Activity,enriched in treated NSCs,0.7777
same,Nes: Actin Binding,enriched in treated NSCs,0.7455
same,Nes: Actin Filament Binding,enriched in treated NSCs,1.029
same,Nes: Active Transmembrane Transporter Activity,enriched in treated NSCs,0.8495
same,Nes: Adenyl Nucleotide Binding,enriched in treated NSCs,0.9485
same,Nes: Adenyl Ribonucleotide Binding,enriched in treated NSCs,0.9696
same,Nes: Anion Transmembrane Transporter Activity,enriched in treated NSCs,1.216
same,Nes: Atp Binding,enriched in treated NSCs,0.8813
same,Nes: Calmodulin Binding,enriched in treated NSCs,0.7204
same,Nes: Carbon Oxygen Lyase Activity,enriched in treated NSCs,0.4048
same,Nes: Cation Channel Activity,enriched in treated NSCs,0.9023
same,Nes: Cation Transmembrane Transporter Activity,enriched in treated NSCs,1.013
same,Nes: Cysteine Type Endopeptidase Activity,enriched in treated NSCs,1.621
same,Nes: Cysteine Type Peptidase Activity,enriched in treated NSCs,1.575
same,Nes: Deoxyribonuclease Activity,enriched in treated NSCs,1.357
same,Nes: Endonuclease Activity,enriched in treated NSCs,0.5289
